In patent US20080234317A1, “METHODS FOR THE IMPROVEMENT OF MEMORY AND NEUROLOGICAL FUNCTION COMPRISING THE ADMINISTRATION OF COMPOSITIONS THAT ACT AS INHIBITORS OF THE SODIUM PROTON (NA+ /H+ ) EXCHANGER, SUBTYPE 5 (NHE-5)” (SANOFI-AVENTIS, priority 2005, published 2008):
Counter-ions that a name gives are not always drawn.

Experiments:
NHE-5 = target: T1, NHE-5 (Homo sapiens, UniProt Q14940); experiment: recovery of intracellular pH in LAP1 cells stably expressing NHE subtypes after acidification (BCECF, FLIPR); format: cell-based; conditions: LAP1 cells expressing NHE-5; pH recovery registered for two minutes
T1 construct: expressed in transfected cells
T1 sequence (Q14940 1-896): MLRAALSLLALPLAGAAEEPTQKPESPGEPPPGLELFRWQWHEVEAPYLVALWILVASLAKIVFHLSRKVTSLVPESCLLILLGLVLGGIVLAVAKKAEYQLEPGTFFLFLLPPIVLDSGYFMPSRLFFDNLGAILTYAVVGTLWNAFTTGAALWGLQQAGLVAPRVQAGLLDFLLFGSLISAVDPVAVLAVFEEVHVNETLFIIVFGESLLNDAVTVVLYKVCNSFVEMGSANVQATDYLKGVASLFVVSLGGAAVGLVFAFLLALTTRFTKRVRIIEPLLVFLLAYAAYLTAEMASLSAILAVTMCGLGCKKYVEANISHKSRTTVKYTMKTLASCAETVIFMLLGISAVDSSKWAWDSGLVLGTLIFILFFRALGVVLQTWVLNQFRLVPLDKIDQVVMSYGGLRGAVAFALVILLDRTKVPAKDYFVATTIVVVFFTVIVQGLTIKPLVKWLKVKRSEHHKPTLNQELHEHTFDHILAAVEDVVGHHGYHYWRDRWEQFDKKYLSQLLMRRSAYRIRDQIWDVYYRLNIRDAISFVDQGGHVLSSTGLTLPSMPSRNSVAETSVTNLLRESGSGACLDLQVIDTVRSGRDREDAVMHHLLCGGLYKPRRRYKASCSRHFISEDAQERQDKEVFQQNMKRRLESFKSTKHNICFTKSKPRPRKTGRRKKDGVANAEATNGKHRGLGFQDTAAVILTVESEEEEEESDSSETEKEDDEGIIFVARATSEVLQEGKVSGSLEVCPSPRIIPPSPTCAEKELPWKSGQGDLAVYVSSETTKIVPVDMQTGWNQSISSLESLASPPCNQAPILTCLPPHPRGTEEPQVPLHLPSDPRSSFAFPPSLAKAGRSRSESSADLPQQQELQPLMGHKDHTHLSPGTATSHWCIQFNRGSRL
Procedure: In order to obtain pharmacological data for NHE-5 inhibition, the recovery in the intracellular pH (pHi) of LAP1 cells, which stably express the different subtypes of the sodium-proton exchanger (NHE), was determined after an acidification. This recovery occurs even under bicarbonate-free conditions in the case of functioning NHE. To this end, the pHi was determined with the pH-sensitive fluorescent dye BCECF (Molecular Probes, Eugene, Oreg., USA; the precursor BCECF-AM is used). […] The pH recovery was started by the addition of 90 μl of Na^+-containing buffer (133.8 mM NaCl, 4.7 mM KCl, 1.25 mM CaCl2, 1.25 mM MgCl2, 0.97 mM Na2HPO4, 0.23 mM NaH2PO4, 10 mM Hepes, 5 mM glucose; a pH of 7.4 is established with 1 M NaOH) in the analytical instrument (FLIPR, “Fluorometric Imaging Plate Reader”, Molecular Devices, Sunnyvale, Calif., USA). The BCECF fluorescence was determined at an excitation wavelength of 498 nm and the FLIPR emission filter 1 (band gap from 510 to 570 nm). The subsequent changes in fluorescence were registered for two minutes at NHE-5 as a measure of the pH recovery. […] From the percentages of the pH recovery, the IC50 value of the particular substance for the individual NHE subtypes was calculated by means of the program XLFit (idbs, Surrey, UK).

[1] = test system: LTP in the CA 1 region of the hippocampus section; experiment: early LTP after weak tetanus in hippocampus sections, CA 1 region (fEPSP slope); format: cell-based, Wistar rats; conditions: 10 μM

SMILES | melting point | IC50 (NHE-5) [nM] | potentiation of the EPSP, % of the baseline ([1]; flushed 20 min before stimulation, washed out 20 min after, 80 min after the stimulus, control 113%) | intrinsic effect on synaptic transmission ([1]; baseline recording before tetanus, rat hippocampus sections) | maintenance of the weak LTP ([1]; weak tetanus, rat hippocampus sections)
CN1Cc2c(Cl)cc(Cl)cc2C(c2ccc(S(=O)(=O)N=C(N)N)cc2)C1 (centres unmarked) (as salt: hydrochloride) [Example 1, N-Diaminomethylene-4-(6,8-dichloro-2-methyl-1,2,3,4-tetrahydroisoquinolin-4-yl)benzenesulfonamide, dihydrochloride] | 140 °C (dec.) | – | – | – | –
CN1Cc2c(Cl)cc(Cl)cc2C(c2ccc(S(=O)(=O)N=C(N)N)cc2)C1 (centres unmarked) [Example 1, N-Diaminomethylene-4-(6,8-dichloro-2-methyl-1,2,3,4-tetrahydroisoquinolin-4-yl)benzenesulfonamide, dihydrochloride] | – | 370 | under 137 % of the baseline | no intrinsic effect on synaptic transmission | improve maintenance of the weak LTP
